In ChEMBL document CHEMBL4396898, “Design and synthesis of 3-aminophthalazine derivatives and structural analogues as PDE5 inhibitors: anti-allodynic effect against neuropathic pain in a mouse model” (Eur J Med Chem, 2019):
In brackets after ≈: the same amount, converted by molar mass.

What was measured:
physchem [1] = conditions: saline
physchem [2] = conditions: methanol:water:HCl, pH 1

SMILES	solubility at 24 h (physchem [1]) [µg/mL]	remaining at 96 h (physchem [2]) [%]
Clc1cccc(Nc2nnc(-c3ccccc3)c3ccccc23)c1	63 (≈ 190 µM)	–
COc1ccc(CNc2nn(C)c3ccc(C(F)(F)F)cc23)cc1	–	100
COc1ccc(CNc2nn(-c3cccnc3)c3ccc(C(F)(F)F)cc23)cc1	15 (≈ 37.7 µM)	100
